Test results as given in US20230301302A1, “AGROCHEMICAL ADJUVANTS” (Croda International Plc, priority 2020, published 2023).

Experiments:
[1] = tested on: Botrytis cinerea (ATCC 90479); experiment: Adjuvancy: agar growth inhibition assay (colony diameter) with fungicide and/or adjuvant; assay type: cell-based; conditions: for inherent fungicidal activity: adjuvant on its own, any of the concentrations tested
From the text: As a measure of the adjuvant activity in relation to the activity of the fungicide alone (e.g., pyraclostrobin) to B. cinerea a value of percent inhibition (adjuvant and fungicide) divided by percent inhibition (fungicide) can be defined, with higher values desired. A value of 1 would therefore represent equal activity of the adjuvant/fungicide combination to the fungicide alone, whereas a value above 1 would represent higher activity with the adjuvant/fungicide combination than the fungicide alone. The actives of the present invention may have a value greater than 1. Preferably greater than 1.5, most preferably greater than 2.
Percent Inhibition—The percent inhibition will be understood to represent the amount the fungicide and/or adjuvant that inhibits the visible growth of the microorganism after 48 hours incubation at 22° C. relative to vehicle treated controls. This is calculated using the following formula:
where: • ØC=diameter of the colony grown on agar supplemented with vehicle (i.e. vehicle treated control), and • ØT=diameter of the colony grown on agar supplemented with fungicide and/or adjuvant formulated in an appropriate vehicle (i.e. solvent such as water C2H5OH, CH3OH, CH3CN, DMSO).
Fold Change—The fold change is a measure of the adjuvant/fungicide combination in inhibiting a microorganism compared to the fungicide alone. This indicates how the adjuvant performs relative to the fungicide alone. This is calculated using the following formula:
where: • INHAF=percent inhibition of fungal growth when treated with fungicide and adjuvant, and • INHF=percent inhibition of fungal growth when treated with fungicide alone.
Botrytis cinerea (ATCC 90479) was cultured on Difco Potato Dextrose Agar (PDA) for 7 days with diurnal UV cycles (12 h UV light and 12 h dark). Spores were harvested in a buffered, sterile saline solution (w/v: 0.9% NaCl with 1% Tween 80) and counted using a haemocytometer. The spore suspension was adjusted to a final concentration of 8.5×10^6 spores/mL to create a standardised inoculum.
To prepare hyphal fragments for adjuvant testing, 8.5×10^4 spores were used to inoculate 10 mL of Difco Potato Dextrose Broth in a 150×25 mm tube. The tube was incubated at 220 RPM, 22° C. for 48 hours. To create hyphal fragments from the culture, the culture was transferred to a 50 mL plastic conical tube containing approximately 20 sterile 5 mm diameter glass beads and vortexed for 5 min. After vortexing the tube was allowed to stand for 5 min to allow large mycelial clumps to settle and then the top layer containing hyphal fragments was removed and used as inocula for growth inhibition assays.
Fungicides and adjuvants were dissolved in methanol and added to molten PDA (˜50° C.) and then the agar was distributed in the wells of 12 well multiwell plates (1 mL/well). The plates were cooled to room temperature and 10 μL of hyphal inoculum was added to the centre of each well. The plates were incubated at 22° C. for 48 hours and then the colony diameter was measured using a digital caliper. The biological growth control consisted of hyphae and vehicle (0.07% methanol), the negative control was media and vehicle (0.07% methanol).
The effect of the adjuvants on fungicidal activity is represented as fold increase in growth inhibition. A value of 1 indicates no increase in fungicidal activity. A value less than 1 indicates reduced fungicidal activity and a value greater than 1 indicates increased fungicidal activity.

[2] = tested on: African green monkey Vero kidney cells (ATCC CCL-81); experiment: Cytotoxicity, alamarBlue cell viability; assay type: cell-based; conditions: highest concentration tested (128 μg/mL); 24 hours
Method: The cytotoxicity of the diketopiperazines was assessed in vitro against African green monkey Vero kidney cells (ATCC CCL-81). Cells were cultured in 15 mL of Eagle's minimal essential medium (Sigma) supplemented with 10% (v/v) fetal bovine serum (VWR), […] penicillin and 0.1 mg/mL streptomycin in T75 cm^2 cell culture flasks. Cells were incubated for 24 hours at 37° C. in a humidified atmosphere of 5% CO2. Culture medium was refreshed every 2-3 days and cells were not allowed to exceed 80% confluency. At 80% confluency the cells were counted, diluted and plated into 96 well flat bottom cell culture plates (Corning) at a cell density of 10,000 cells per well in 90 μL of growth medium. The plates were incubated at 37° C. in a humidified atmosphere of 5% CO2 for 24 hours to allow cells to adhere to the plate before treatment. After 24 hours, adjuvants were solubilised in DMSO, serially diluted and added to the wells at final concentrations ranging from 1 μg/mL to 128 μg/mL. DMSO was used as the vehicle at a final concentration of 1% in the wells. The plates were incubated at 37° C. in a humidified atmosphere of 5% CO2 for 24 hours after which alamarBlue (Invitrogen) was added to each well at 10% of the culture volume. Fluorescence was monitored using a Thermo Scientific Varioskan Flash plate reader at 560/12 excitation, 590 nm emission both at time zero and 4 hrs after alamarBlue addition. After subtracting the time zero emission 590 nm measurement from the final reading, the inferred percentage of cell viability relative to the vehicle control wells was calculated.

[3] = tested on: butterhead lettuce leaves; experiment: Phytotoxicity on leaves, necrosis score; assay type: in vivo; conditions: scale 0 (no necrosis) to 3 (extended necrosis)
Method: (§1) Phytotoxicity of the diketopiperazines was assessed on soybean and butterhead lettuce leaves. Soybean seeds were inoculated with Bradyrhizobium japnicum and sown in Levington's M3 compost in 9 cm^2 plastic pots. Soybean plants were given supplementary lighting with SON-T bulbs. Biological control was used to prevent thrip damage (Biolone—Amblyseius cucumeris). The glasshouse temperatures were set to maintain 22° C.±2 during the day and 19° C.±2 at night. Lettuce plants were grown in the same manner without rhizobacteria inoculation. Supplementary lighting was provided by LED bulbs. All plants were maintained as well watered and grown for fourteen days. Test compounds/extracts were resuspended in 2% DMSO ([…]). Synperonic Al1 LQ was used a positive control and UEP-100 as a negative control. Treatments were applied as six 10 μL droplets on the leaf's surface. Phytotoxic tissue damage was assessed 1- and 7-days post-treatment and on a scale of 0 to 3. The phytotoxic effect of the compounds/extract at 1 g/L is represented as a mean phytotoxic necrosis score, where 0=no necrosis; 1=slight spot-like necrosis of the inoculation site; 2=ring-shaped necrosis; 3=extended necrosis.

soybean leaves = experiment: Phytotoxicity on leaves, necrosis score; assay type: in vivo; conditions: Soy, 1 g/L, scale 0 (no necrosis) to 3 (extended necrosis)
Method: as §1

[4] = Pyra 0.0156 μg/mL, adjuvant 128 μg/mL, vs pyraclostrobin alone, 48 h, 22° C.
[5] = Pyra 0.0313 μg/mL, adjuvant 128 μg/mL, vs pyraclostrobin alone, 48 h, 22° C.
[6] = Pyra 0.0625 μg/mL, adjuvant 128 μg/mL, vs pyraclostrobin alone, 48 h, 22° C.

SMILES | inherent fungicidal activity [1] | cytotoxicity against Vero cells [2] | Fold Change in Growth Inhibition [1, 4] | Fold Change in Growth Inhibition [1, 5] | Fold Change in Growth Inhibition [1, 6] | Fold Change in Growth Inhibition ([1]; Teb 0.095 μg/mL, adjuvant 25 μg/mL, vs tebuconazole alone) | Fold Change in Growth Inhibition ([1]; Teb 0.095 μg/mL, adjuvant 50 μg/mL, vs tebuconazole alone) | Fold Change in Growth Inhibition ([1]; Teb 0.095 μg/mL, adjuvant 100 μg/mL, vs tebuconazole alone) | Fold Change in Growth Inhibition ([1]; Teb 0.19 μg/mL, adjuvant 25 μg/mL, vs tebuconazole alone) | Fold Change in Growth Inhibition ([1]; Teb 0.19 μg/mL, adjuvant 50 μg/mL, vs tebuconazole alone) | Fold Change in Growth Inhibition ([1]; Teb 0.19 μg/mL, adjuvant 100 μg/mL, vs tebuconazole alone) | Mean Score (phytotoxic necrosis) ([3]; Day 1, 1 g/L) | Mean Score (phytotoxic necrosis) ([3]; Day 7, 1 g/L) | Mean Score (phytotoxic necrosis) ([3]; Day 7, 1 g/L, listed as DKP (1a)) | Mean Score (phytotoxic necrosis) (soybean leaves; Day 1) | Mean Score (phytotoxic necrosis) (soybean leaves; Day 7) | Mean Score (phytotoxic necrosis) (soybean leaves; Day 7, listed as DKP (1a))
CN1C(=O)[C@@H]2CCCN2C(=O)/C1=C\c1ccccc1 [DKP (Ib)] | did not demonstrate any inherent fungicidal activity | did not exhibit any cytotoxicity | – | – | – | – | – | – | – | – | – | – | – | – | – | – | –
CN1C(=O)[C@@H]2CCCN2C(=O)/C1=C/c1ccccc1 [DKP (Ia)] | did not demonstrate any inherent fungicidal activity | did not exhibit any cytotoxicity | 2.18 | 3.31 | 1.87 | 1.97 | 1.78 | 2.00 | 4.39 | 1.78 | 2.76 | 0 | did not exhibit any phytotoxicity | 0 | 0 | did not exhibit any phytotoxicity | 0
O=C1N/C(=C/c2ccccc2)C(=O)N2CCC[C@@H]12 [DKP (Id)] | did not demonstrate any inherent fungicidal activity | did not exhibit any cytotoxicity | – | – | – | – | – | – | – | – | – | – | – | – | – | – | –
O=C1N/C(=C\c2ccccc2)C(=O)N2CCC[C@@H]12 [DKP (Ic)] | did not demonstrate any inherent fungicidal activity | did not exhibit any cytotoxicity | 1.52 | 3.14 | 1.48 | – | – | – | – | – | – | – | – | – | – | – | –
